# From paper PMC3472742, “Bio-Guided Isolation of the Cytotoxic Terpenoids from the Roots of Euphorbia kansui against Human Normal Cell Lines L-O2 and GES-1” (International Journal of Molecular Sciences, 2012)
# Where two headings read alike, the source gives them in different places.
# Assays:
# [1] = system: human normal liver cells L-O2; assay: MTT cell proliferation (cytotoxicity) assay on human normal liver cells L-O2; format: cell-based; conditions: for IC50: 48 h, pure compounds, MTT, n = 6, read-out: IC50 L-O2 (proliferation inhibition)
# Procedure: (§1) Human normal liver cell L-O2 was kindly donated by the School of Life Science, Nanjing Normal University (Nanjing, China), and Human normal gastric epithelial cell GES-1 was kindly donated by the Department of Gastroenterology, Nanjing Drum Tower Hospital (Nanjing, China). Human normal liver cell LO-2 was routinely cultured in DMEM medium, supplemented with 10% (v/v) fetal bovine serum (FBS), 100 U/mL of penicillin and 100 μg/mL of streptomycin in a humidified atmosphere with 5% CO2 at 37 °C in an incubator. The culture medium was changed every day. Cultures were dissociated with 0.25% trypsase in phosphate buffered (pH 7.2~7.4) saline (PBS). Human normal gastric epithelial cell GES-1 was routinely cultured in DMEM medium, supplemented with 15% (v/v) calf serum (CS), 100 U/mL of penicillin and 100 μg/mL of streptomycin in a humidified atmosphere with 5% CO2 at 37 °C in an incubator. The culture medium was changed every two days. Cultures were dissociated with 0.25% trypsase and 0.05% EDTA in PBS (pH 7.2~7.4).
# (§2) Cytotoxicity activity was assayed by MTT method as described. Briefly, cells were seeded in 96-well plates (Costar, Corning Co., Ltd., Beijing, China) with 100 μL at a concentration of cell suspension of 1.0 × 10_4 cells/mL (L-O2 cell) and 1.0 × 10_5 cells/mL (GES-1 cell), and incubated for 24 h at 37 °C in a humidified atmosphere of 5% CO2 in an incubator.
# (§3) Every sample was solubilized in dimethyl sulfoxide (DMSO) to a concentration of 10 mg/mL and stored at 4 °C, then diluted with complete medium to the desired series concentration before treating the cells. Each solution was added into 96-well plates with 100 μL per well, repeated 6 well. Cells of the control groups were treated with the same volume of medium. The treated cells with different groups were incubated for 48 h at 37 °C in a humidified atmosphere of 5% CO2 in an incubator. Then, the treated cells were added with 20 μL/well of MTT (5.0 mg/mL), and incubated for a further 4 h in an incubator. The growth medium was removed from all the wells, and 150 μL DMSO were added to each well. The plates were shaken gently for 10 min to blend the mixture. The absorbance value of each well was read at 490 nm using a microplate reader. All experiments were performed at least three times. The inhibition rate of cell proliferation was calculated according to the formula:
# (§4) (1) cell inhibition (%)=1-sample solution absorbance value/control absorbance value)×100%
# (§5) The results were expressed as an inhibition ratio and IC50 (concentration that inhibits 50% of cell growth). The data were analyzed with software SPSS 15.0 (SPSS Inc.: Chicago, IL, USA). The anti-proliferation activity is more significant when the IC50 is smaller.
# [2] = system: human normal gastric epithelial cell GES-1; assay: MTT cell proliferation (cytotoxicity) assay on human normal gastric epithelial cells GES-1; format: cell-based; conditions: for IC50: pure compounds, MTT, 48 h, n = 6, read-out: IC50 GES-1 (proliferation inhibition); for inhibition activity on GES-1 cell lines growth vs control, dose-dependent: Figure 2
# Procedure: as §1, §2, §3, §4, §5
# [3] = concentration range 0.78–12.5 μg/mL, Figure 3
# [4] = concentration range 0.78–12.5 μg/mL
# [5] = concentration range 0.39–6.25 μg/mL
SMILES,IC50 ([1]; Homo sapiens) [µM],"inhibition activity on L-O2 cell lines growth vs control, dose-dependent [1, 3]","IC50 ([2]; Homo sapiens, GES1, 48 h) [µM]","inhibition activity on GES-1 cell lines growth vs control, dose-dependent [2, 4]",further results
"CCCCCC=CC=CC(=O)OC1C(C)=CC23C(=O)C(C=C(COC(C)=O)C(O)C12O)C1C(CC3C)C1(C)C (stereo not drawn) [Compound 5, 3-O-(2′E,4′Z-Decadienoyl)-20-O-acetylingenol]",12.4,significant inhibition activity,8.51,significant inhibition activity,–
"CC(C)=CCC[C@@H](C)[C@@H]1CC[C@]2(C)C3=C(CC[C@@]12C)[C@@]1(C)CC[C@H](O)C(C)(C)[C@@H]1CC3 [Compound 12, euphol]",> 100,–,> 100,–,–
"CC1=CC23C(=O)C(C=C(C)C(OC(=O)c4ccccc4)C2(O)C1O)C1C(CC3C)C1(C)C (stereo not drawn) [Compound 9, 5-O-Benzoyl-20-deoxyingenol]",34.5,–,22,–,"inhibition activity on L-O2 cell lines growth vs control, dose-dependent ([1]; concentration range 1.56–25 μg/mL, Figure 3): significant inhibition activity; inhibition activity on GES-1 cell lines growth vs control, dose-dependent ([2]; concentration range 1.56–25 μg/mL): significant inhibition activity"
"C=C1[C@H](OC(C)=O)[C@@H](OC(=O)c2ccccc2)[C@@H](OC(C)=O)C(C)(C)[C@H]2O[C@](O)([C@H](C)C2=O)[C@@]2(OC(C)=O)C[C@H](C)[C@H](OC(C)=O)[C@@H]2[C@H]1OC(C)=O [Compound 1, kansuinine A]",> 100,–,> 100,–,–
"CC(C)=CCC[C@H](C)[C@@H]1CC[C@]2(C)C3=C(CC[C@@]12C)[C@@]1(C)CC[C@H](O)C(C)(C)C1CC3=O (stereo partly drawn) [Compound 11, epi-kansenone]",17.8,significant inhibition activity,8.04,–,"inhibition activity on GES-1 cell lines growth vs control, dose-dependent [2, 5]: significant inhibition activity; melting point: 116 to 118 °C"
"CCCCCC=CC=CC(=O)OC1C(C)=CC23C(=O)C(C=C(C)C(O)C12O)C1C(CC3C)C1(C)C (stereo not drawn) [Compound 7, 3-O-(2′E,4′Z-Decadienoyl)-20-deoxyingenol]",13.1,significant inhibition activity,3.53,significant inhibition activity,–
"C=C1C(OC(=O)c2ccccc2)C(O)C(=O)C(C)(C)C2OC2C(C)C(=O)C2(O)C(C1OC(=O)c1ccccc1)C(OC(C)=O)C(C)(O)C2OC(C)=O (stereo not drawn) [Compound 2, kansuinine B]",> 100,–,> 100,–,–
"CCCCCC=CC=CC(=O)OC1C(C)=CC23C(=O)C(C=C(COC(C)=O)C(O)C12O)C1C(CC3C)C1(C)C (stereo not drawn) [Compound 6, 3-O-(2′E,4′E-Decadienoyl)-20-O-acetylingenol]",–,significant inhibition activity,–,–,"IC50 [1]: 8.22 µM; inhibition activity on GES-1 cell lines growth vs control, dose-dependent [2, 5]: significant inhibition activity; IC50 [2]: 6.67 µM"
"CC1=CC2C(=O)C3(C=C(C)C(OC(=O)c4ccccc4)C3(O)C1O)C(C)CC1C2C1(C)C (stereo not drawn) [Compound 8, 3-O-Benzoyl-20-deoxyingenol]",70.8,–,23.5,significant inhibition activity,"inhibition activity on L-O2 cell lines growth vs control ([1]; concentration range 3.125–50 μg/mL, Figure 3): significant inhibition activity"
"CC(=O)OC1C(C)=CC23C(=O)C(C=C(C)C(OC(=O)c4ccccc4)C12O)C1C(CC3C)C1(C)C (stereo not drawn) [Compound 4, kansuiphorin C]",> 100,–,> 100,–,–
